The values that follow come from patent US9108933B2, “Method for treating proliferative disorders associated with mutations in c-Met” (Synta Pharmaceuticals Corp., priority 2007, dated 2015).

Data set [1] concerns MNK45 cell line, c-Met amplified human gastric carcinoma. Kind of data set: Cell survival of MKN45 cells (Cell Counting Kit-8). The settings on record: 72 hours. The class given is cell-based. How it is done: MNK45 cell line, (DSMZ #ACC 409), which is a c-Met amplified human gastric carcinoma cell line, was obtained from the Deutsche Sammlung von Mikroorganismen and Zellkulturen GmbH (DSMZ; Braunschweig, Germany). […] MNK45 cells (20,000 cells/well) were cultured in 96-well plates and maintained at 37° C. for several hours. The cells were incubated at 37° C. for 72 hours with various concentrations of compound 226 of the invention, 17AAG, or DMAG. 17AAG and 17DMAG are Hsp90 inhibitors that are currently in clinical trials and are used here as positive controls for Hsp90 inhibition. Cell survival was measured with Cell Counting Kit-8 (Dojindo Laboratories, Cat # CK04).
Background: Tetrazolium dyes change colour on reduction, which living cells bring about.

For data set [2], the system named is mutant c-Met (T1010I) on ACHN human renal cell carcinoma cells. Kind of data set: Flow cytometric analysis of c-Met on the surface of ACHN cells. The class given is cell-based. The settings on record: 18 hours, read-out: IC50 for degradation of mutant c-Met. On the procedure:
(§1) Flow cytometric analysis was used to monitor the degradation of c-Met over-expressed on the surface of the ACHN human renal cell carcinoma cell line which contains the juxtamembrane domain mutation (C3223T: T1010I) and is constitutively active, and the MKN45 which is a c-Met amplified human gastric carcinoma cell line. ACHN and MKN45 cells (5×10^5 cells) were treated with Compound 226, 17-AAG or 17-DMAG for 18 hours. After treatment the cells were stained with FITC conjugated c-MET antibody. The expression of the c-Met cell surface proteins was measured by flow cytometry analysis (see FIG. 4 for ACHN cells and FIG. 5 for MKN45 cells). The IC50 value was determined by XLfit software.

Data set [3] has as its system c-Met on MKN45 c-Met amplified human gastric carcinoma cells. Kind of data set: Flow cytometric analysis of c-Met on the surface of MKN45 cells. The class given is cell-based. The settings on record: MKN-45 cell line, 18 hours; read-out: IC50 for degradation of c-Met. On the procedure: as §1
In general terms: In flow cytometry, cells or beads pass a laser one at a time.

In data set [4] the test system is human c-MET amplified gastric carcinoma tumor cell line MKN-45. In words: MKN-45 nude mouse xenograft model. Format: in vivo. As to conditions: 50 mg/kg body weight, i.v., 3 times per week, 9 doses. On the procedure:
The human gastric carcinoma cell line, MKN-45 (DSMZ #ACC 409), was obtained from the Deutsche Sammlung von Mikroorganismen and Zellkulturen GmbH (DSMZ; Braunschweig, Germany). […] FBS was obtained from ATCC and all other reagents were obtained from Invitrogen Corp. (Carlsbad, Calif., USA). Cells that had been cryopreserved in liquid nitrogen were rapidly thawed at 37° C. and transferred to a tissue culture flask containing growth media and then incubated at 37° C. in a 5% CO2 incubator. To expand the cell line, growth media was replaced every 2-3 days until the flask became 90% confluent, typically in 5-10 days. Cultures were passaged by washing with 10 mL of room temperature phosphate buffered saline (PBS) and then disassociating cells by adding 5 mL 1× trypsin-EDTA and incubating at 37° C. until the cells detached from the surface of the flask. To inactivate the trypsin, 5 mL of growth media was added and then the contents of the flask were centrifuged to pellet the cells. The supernatant was aspirated and the cell pellet was resuspended in 10 mL of growth media and the cell number determined using a hemocytometer. Approximately 3-6×10(6) cells per flask were seeded into 175 cm^2 flasks containing 50 mL of growth media and incubated at 37° C. in a 5% CO2 incubator. […]
Tumors were then permitted to develop in vivo until the majority reached 100-200 mm^3 in tumor volume, which required ˜2 weeks following implantation. […] Tumor volumes (V) were calculated by caliper measurement of the width (W), length (L) and thickness (T) of tumors using the following formula: V=0.5236×(L×W×T). Animals were randomized into treatment groups so that the average tumor volumes of each group were similar at the start of dosing. % T/C values, as a measure of efficacy, were determined as follows: • (i) If ΔT>0: % T/C=(ΔT/ΔC)×100 • (ii) If ΔT<0: % T/C=(ΔT/T0)×100 • (iii) ΔT=Change in average tumor volume between start of dosing and the end of study. • (iv) ΔC=Change in average tumor volume between start of dosing and the end of study. • (v) T0=Average tumor volume at start of dosing. […]

The test system of data set [5] is human tumor cell line MDA-MB-435S. Kind of data set: MDA-MB-435S nude mouse xenograft model. The class given is in vivo. As to conditions: 300 mg/kg body weight, IP, 5 days per week for 3 weeks. On the procedure: FBS was obtained from Sigma-Aldrich Corp. (St. Louis, Mo., USA), and all other reagents were obtained from Invitrogen Corp. (Carlsbad, Calif., USA). Approximately 4-5×10(6) cells that had been cryopreserved in liquid nitrogen were rapidly thawed at 37° C. and transferred to a 175 cm^2 tissue culture flask containing 50 ml of growth media and then incubated at 37° C. in a 5% CO2 incubator. The growth media was replaced every 2-3 days until the flask became 90% confluent, typically in 5-7 days. To passage and expand the cell line, a 90% confluent flask was washed with 10 ml of room temperature phosphate buffered saline (PBS) and the cells were disassociated by adding 5 ml 1× Trypsin-EDTA (Invitrogen) and incubating at 37° C. until the cells detached from the surface of the flask. […] The supernatant was aspirated and the cell pellet was resuspended in 10 ml of growth media and the cell number determined using a hemocytometer. […]
Six to eight week old, female Crl:CD-1-nuBR (nude) mice were obtained from Charles River Laboratories (Wilmington, Mass., USA). […] Tumor volumes (V) were calculated by caliper measurement of the width (W), length (L) and thickness (T) of tumors using the following formula: V=[…]×(L×W×T) Animals were randomized into treatment groups so that the average tumor volumes of each group were similar at the start of dosing. […]

The next data set concerns Hsp90 protein. Kind of data set: Malachite Green assay of ATPase activity of Hsp90 protein. The class given is biochemical. The settings on record: 37° C., 4 hours. On the procedure: Hsp90 protein was obtained from Stressgen (Cat#SPP-770). Assay buffer: 100 mM Tris-HCl, Ph7.4, 20 mM KCl, 6 mM MgCl2. […] Malachite green reagent was added to the reaction. […] The plate was read by an ELISA reader with an absorbance at 620 nm.

Another data set has as its system Her2. In words: Degradation of Her2 in BT-474 cells, Western blot (Method 1). Format: cell-based, human. The settings on record: overnight. How it is done: Human high-Her2 breast carcinoma BT474 (HTB-20), SK-BR-3 (HTB-30) and MCF-7 breast carcinoma (HTB-22) from American Type Culture Collection, VA, USA were grown in Dulbecco's modified Eagle's medium with 4 mM L-glutamine and antibiotics (100 IU/ml penicillin and 100 ug/ml streptomycine; GibcoBRL). To obtain exponential cell growth, cells were trypsinized, counted and seeded at a cell density of 0.5×10^6 cells/ml regularly, every 3 days. All experiments were performed on day 1 after cell passage.
After treatment, each cytoplasmic sample was prepared from 1×10^6 cells by incubation of cell lysis buffer (#9803, cell Signaling Technology) on ice for 10 minutes. The resulting supernatant used as the cytosol fractions were dissolved with sample buffer for SDS-PAGE and run on a SDS-PAGE gel, blotted onto a nitrocellulose membrane by using semi-dry transfer. Non-specific binding to nitrocellulose was blocked with 5% skim milk in TBS with 0.5% Tween at room temperature for 1 hour, then probed with anti-Her2/ErB2 mAb (rabbit IgG, #2242, Cell Signaling) and anti-Tubulin (T9026, Sigma) as housekeeping control protein. HRP-conjugated goat antirabbit IgG (H+L) and HRP-conjugated horse anti-mouse IgG (H+L) were used as secondary Ab (#7074, #7076, Cell Signaling) and LumiGLO reagent, 20× Peroxide (#7003, Cell Signaling) was used for visualization.
(A western blot detects proteins with antibodies after separation by electrophoresis.)

By IC50 is commonly meant the concentration that gives 50% inhibition.

“Also recorded” adds a separate entry of the source.

In data set [1], `C=CCNC1=C2C[C@@H](C)C[C@H](OC)[C@H](O)[C@@H](C)/C=C(\C)[C@H](OC(N)=O)[C@@H](OC)/C=C\C=C(/C)C(=O)NC(=CC1=O)C2=O` [Compound 17AAG] yielded an IC50 of 45 nM.
`C=CCNC1=C2C[C@@H](C)C[C@H](OC)[C@H](O)[C@@H](C)/C=C(\C)[C@H](OC(N)=O)[C@@H](OC)/C=C\C=C(/C)C(=O)NC(=CC1=O)C2=O` [Compound 17-AAG]: the IC50 in data set [2] is 244 nM; in data set [3], 202 nM.
Regarding `CC(C)c1cc(-c2nnc(O)n2-c2ccc3c(ccn3C)c2)c(O)cc1O` [Compound 226, 3-(2,4-dihydroxy-5-isopropyl-phenyl)-4-(1-methyl-indol-5-yl)-5-hydroxy-[1,2,4] triazole], the results for the half-inhibitory concentration (IC50) in data set [2], in data set [1] (Homo sapiens) and in data set [3] were 18 nM, 8 nM and 26 nM, respectively. In addition, the toxicity result in data set [4] is recorded as “not associated with excessive toxicity; also recorded: Overt toxicity was not observed”. Moreover, in data set [4] (day 36), the “% T/C value” is recorded as 8%. The “average bodyweight loss relative to the start of the study” value in data set [4] (day 36) is on record as −3.5%.
For the compound `CCc1cc(-c2nnc(S)n2-c2cccc3ccccc23)c(O)cc1O` [Compound 49, 3-(2,4-Dihydroxy-5-ethyl-phenyl)-4-(naphthalen-1-yl)-5-mercapto-triazole], the “toxicity (effect on body weights)” value in data set [5] is on record as “not associated with significant toxicity”.
For the compound `CO[C@H]1/C=C\C=C(/C)C(=O)NC2=CC(=O)C(NCCN(C)C)=C(C[C@@H](C)C[C@H](OC)[C@H](O)[C@@H](C)/C=C(\C)[C@@H]1OC(N)=O)C2=O` [Compound 17-DMAG], the concentration for half-maximal inhibition (IC50) in data set [2] was 95 nM; in data set [1], 14 nM; in data set [3], 70 nM.
Regarding `Oc1ccc(-c2nnc(S)n2-c2cccc3ccccc23)c(O)c1` [Compound 108, 3-(2,4-Dihydroxy-3-phenyl)-4-(naphthalen-1-yl)-5-mercapto-triazole], the “inhibition of ATPase activity of Hsp90” value with Hsp90 protein (4 μM) is reported as “significant inhibition”; with Hsp90 protein (40 μM), “even greater inhibition of ATPase activity of Hsp90 than geldanamycin”. The “degradation of Her2” value with Her2 (0.5 μM) was “partially degradated”; with Her2 (2 μM), “partially degradated”; in the data set with Her2 (5 μM) it was “almost completely degraded”.
